The source made the active and inactive calls.
What was measured:
NADPH oxidase 1 = biological target: T1, NADPH oxidase 1 (Homo sapiens, UniProt Q9Y5S8); assay type: functional, cell-based;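 further: Cell-based assay with luminescence read-out, IC50 derived from inhibitor dose-response curves; intracellular ROS from endogenous NOX1 in intact HT29 colon cancer cells; potency of inhibitors that lower the ROS luminescence signal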
T1 sequence (Q9Y5S8 whole entry): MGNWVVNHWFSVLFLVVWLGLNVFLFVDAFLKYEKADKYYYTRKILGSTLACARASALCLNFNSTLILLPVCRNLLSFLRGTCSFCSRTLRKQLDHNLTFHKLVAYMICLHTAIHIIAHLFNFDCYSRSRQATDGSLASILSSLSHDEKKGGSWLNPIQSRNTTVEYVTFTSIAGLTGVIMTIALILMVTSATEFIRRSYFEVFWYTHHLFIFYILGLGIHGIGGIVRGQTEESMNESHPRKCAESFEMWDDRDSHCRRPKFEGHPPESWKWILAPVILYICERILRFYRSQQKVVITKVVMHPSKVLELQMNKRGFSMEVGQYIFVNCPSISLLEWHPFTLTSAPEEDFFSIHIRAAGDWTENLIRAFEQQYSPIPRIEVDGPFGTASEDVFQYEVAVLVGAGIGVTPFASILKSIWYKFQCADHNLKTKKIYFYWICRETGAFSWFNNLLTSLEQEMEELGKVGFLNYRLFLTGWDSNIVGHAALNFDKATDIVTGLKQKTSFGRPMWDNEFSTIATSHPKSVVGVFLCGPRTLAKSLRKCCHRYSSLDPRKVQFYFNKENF

[1] = biological target: Lytic switch protein BZLF1 (Epstein-Barr virus (strain B95-8) (HHV-4) (Human herpesvirus 4), UniProt P03206); assay: EBV ZTA inhibitors, dose response, counter-screen for EBNA-1 inhibitor project, biochemical, fluorescence polarization, Epstein-Barr virus, 1536-well (AID 2377); parameters: species or system human gammaherpesvirus 4;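 further: fluorescence polarization of Cy5-labelled ZRE DNA probe bound by purified Zta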
[2] = biological target: Epstein-Barr nuclear antigen 1 (Epstein-Barr virus (strain B95-8) (HHV-4) (Human herpesvirus 4), UniProt P03211); assay: EBNA-1 inhibitors, dose response, biochemical, fluorescence polarization, 1536-well (AID 2381); parameters: species or system human gammaherpesvirus 4;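 further: fluorescence polarization of a Cy5 DNA probe bound by EBNA-1 protein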
Leucine aminopeptidase = biological target: T2, Leucine aminopeptidase (Plasmodium falciparum 3D7, UniProt Q8IL11); assay: P. falciparum M17LAP inhibitors, primary screen, biochemical, fluorogenic H-Leu-NHMec substrate, 1536-well (AID 1619); assay type: functional
T2 sequence (Q8IL11 whole entry): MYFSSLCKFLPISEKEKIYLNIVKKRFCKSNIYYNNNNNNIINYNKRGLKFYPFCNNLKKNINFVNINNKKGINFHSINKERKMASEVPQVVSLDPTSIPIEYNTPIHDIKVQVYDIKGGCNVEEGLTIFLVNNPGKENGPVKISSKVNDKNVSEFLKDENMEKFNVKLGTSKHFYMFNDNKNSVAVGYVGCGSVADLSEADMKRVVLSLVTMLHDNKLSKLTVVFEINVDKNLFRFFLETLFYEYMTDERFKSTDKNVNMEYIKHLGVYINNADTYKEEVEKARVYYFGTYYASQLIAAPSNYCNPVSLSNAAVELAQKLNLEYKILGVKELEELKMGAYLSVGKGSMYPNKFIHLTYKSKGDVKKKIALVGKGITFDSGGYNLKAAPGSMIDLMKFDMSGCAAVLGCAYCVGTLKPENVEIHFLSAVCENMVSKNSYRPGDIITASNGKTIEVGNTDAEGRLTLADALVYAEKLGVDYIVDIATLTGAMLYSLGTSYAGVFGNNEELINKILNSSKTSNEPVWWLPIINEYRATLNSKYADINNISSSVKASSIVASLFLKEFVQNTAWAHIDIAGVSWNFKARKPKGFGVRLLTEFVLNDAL

Procathepsin L = Procathepsin L (Homo sapiens, UniProt P07711); assay: cathepsin L inhibitors, dose response, counter-screen for M1/M17 aminopeptidase inhibitor project, biochemical, QFRET, 1536-well (AID 2214)
Aspartyl aminopeptidase = biological target: T3, Aspartyl aminopeptidase (Plasmodium falciparum 3D7, UniProt Q8I2J3); assay: Counterscreen for inhibitors of M1 and M17 aminopeptidases: QFRET-based biochemical high throughput dose response assay for inhibitors of the Plasmodium falciparum M18 Aspartyl Aminopeptidase (PFM18AAP). [Related PubChem assays: 1619 (Screening assay (M17LAP inhibitors).), 1445 (Screening assay (M1AAP inhibitors).)]
T3 sequence (Q8I2J3 whole entry): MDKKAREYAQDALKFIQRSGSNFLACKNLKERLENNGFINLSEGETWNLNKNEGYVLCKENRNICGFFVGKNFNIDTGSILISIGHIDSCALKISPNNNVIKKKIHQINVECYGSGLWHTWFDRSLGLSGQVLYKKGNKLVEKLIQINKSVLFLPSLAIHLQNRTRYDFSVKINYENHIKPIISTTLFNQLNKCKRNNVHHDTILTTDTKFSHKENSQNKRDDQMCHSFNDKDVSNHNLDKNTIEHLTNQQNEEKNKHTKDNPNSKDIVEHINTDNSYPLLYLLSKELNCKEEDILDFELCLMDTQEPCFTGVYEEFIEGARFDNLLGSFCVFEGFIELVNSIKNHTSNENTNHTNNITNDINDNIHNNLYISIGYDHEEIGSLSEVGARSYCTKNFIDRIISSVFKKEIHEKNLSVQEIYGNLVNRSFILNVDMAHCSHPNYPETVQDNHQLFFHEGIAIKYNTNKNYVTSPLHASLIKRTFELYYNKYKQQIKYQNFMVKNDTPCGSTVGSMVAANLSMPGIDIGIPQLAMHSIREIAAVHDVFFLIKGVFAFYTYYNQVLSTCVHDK

Protein RecA = biological target: T4, Protein RecA (Mycobacterium tuberculosis, UniProt P9WHJ3); assay: Fluorescence Cell-Free Homogeneous Dose Retest to Identify Inhibitors of RecA-Intein Splicing Activity. [Related pubchem assays (depositor defined):AID2097, AID2223, AID489010, AID492950]; assay type: functional
T4 sequence (P9WHJ3 whole entry): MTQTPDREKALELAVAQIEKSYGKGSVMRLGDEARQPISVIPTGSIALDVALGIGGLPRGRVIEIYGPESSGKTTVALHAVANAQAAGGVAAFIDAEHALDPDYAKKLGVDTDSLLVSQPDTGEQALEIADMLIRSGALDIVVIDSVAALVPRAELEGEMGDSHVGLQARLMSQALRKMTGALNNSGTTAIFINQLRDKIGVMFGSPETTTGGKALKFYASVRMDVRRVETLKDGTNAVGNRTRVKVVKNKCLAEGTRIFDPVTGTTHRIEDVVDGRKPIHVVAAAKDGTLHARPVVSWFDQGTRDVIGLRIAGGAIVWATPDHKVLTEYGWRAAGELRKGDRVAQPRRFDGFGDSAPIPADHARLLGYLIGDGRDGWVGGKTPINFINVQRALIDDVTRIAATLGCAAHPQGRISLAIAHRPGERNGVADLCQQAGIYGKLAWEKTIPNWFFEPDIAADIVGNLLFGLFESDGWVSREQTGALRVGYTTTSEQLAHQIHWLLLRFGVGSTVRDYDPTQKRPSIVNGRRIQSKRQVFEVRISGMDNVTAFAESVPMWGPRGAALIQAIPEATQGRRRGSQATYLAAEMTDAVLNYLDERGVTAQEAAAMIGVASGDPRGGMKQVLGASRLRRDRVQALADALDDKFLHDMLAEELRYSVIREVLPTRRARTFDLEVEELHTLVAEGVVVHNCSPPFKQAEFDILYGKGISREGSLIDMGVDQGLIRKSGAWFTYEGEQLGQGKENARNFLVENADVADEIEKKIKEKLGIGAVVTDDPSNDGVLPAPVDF

[3] = biological target: T5, Replicative DNA helicase DnaB (Mycobacterium tuberculosis, UniProt P9WMR3); assay: DnaB intein splicing inhibitors, dose response, biochemical, cell-free fluorescence (AID 449749); assay type: functional
T5 sequence (P9WMR3 whole entry): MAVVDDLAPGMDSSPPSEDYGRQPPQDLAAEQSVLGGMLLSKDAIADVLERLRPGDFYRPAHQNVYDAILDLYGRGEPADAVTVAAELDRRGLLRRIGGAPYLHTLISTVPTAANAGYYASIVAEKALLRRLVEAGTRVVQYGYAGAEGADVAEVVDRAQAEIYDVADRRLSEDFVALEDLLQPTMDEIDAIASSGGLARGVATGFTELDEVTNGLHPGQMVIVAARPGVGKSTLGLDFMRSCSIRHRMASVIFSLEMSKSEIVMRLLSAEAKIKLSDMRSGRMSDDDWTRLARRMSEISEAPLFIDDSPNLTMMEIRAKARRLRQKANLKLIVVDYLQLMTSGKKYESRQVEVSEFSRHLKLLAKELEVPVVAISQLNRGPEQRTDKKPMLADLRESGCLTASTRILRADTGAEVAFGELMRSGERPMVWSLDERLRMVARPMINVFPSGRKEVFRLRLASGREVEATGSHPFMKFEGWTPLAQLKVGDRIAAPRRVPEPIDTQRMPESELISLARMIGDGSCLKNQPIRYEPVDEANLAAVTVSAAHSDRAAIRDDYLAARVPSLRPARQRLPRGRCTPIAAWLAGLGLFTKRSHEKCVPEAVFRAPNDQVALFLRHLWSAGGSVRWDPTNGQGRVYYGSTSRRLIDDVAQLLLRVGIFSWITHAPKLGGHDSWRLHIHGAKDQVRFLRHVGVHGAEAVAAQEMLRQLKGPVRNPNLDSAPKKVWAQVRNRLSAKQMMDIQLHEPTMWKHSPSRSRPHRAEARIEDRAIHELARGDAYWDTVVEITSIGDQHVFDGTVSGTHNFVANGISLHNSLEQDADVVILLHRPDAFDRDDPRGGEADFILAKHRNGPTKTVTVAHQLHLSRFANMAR

[4] = insulin promoter down-regulators in MIN6 cells, imaging, high-content screening, mouse beta cells (AID 1628); assay type: functional
Nonstructural protein 1 = Nonstructural protein 1 (Influenza A virus, UniProt Q194T2); assay type: functional, Influenza A virus (A/California/07/2009(H1N1))
Estrogen receptor beta [5] = biological target: T6, Estrogen receptor beta (Homo sapiens, UniProt Q92731);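 further: recombinant ER-beta bound to coactivator SRC1 peptide in presence of estradiol agonist; inhibitors block coactivator peptide binding and lower the FRET signal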
[6] = cytotoxicity in MIN6 insulinoma cells, dose response, cytotoxicity control, cell-based, mouse insulinoma (AID 2122); assay type: functional;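 further: confirmatory high-throughput counterscreen run to flag cytotoxic compounds; mouse MIN-6 beta cells carrying an insulin promoter eGFP reporter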
Estrogen receptor beta [7] = biological target: T6, Estrogen receptor beta; assay: ERβ–SRC-3 coactivator interaction inhibitors, confirmation, orthogonal assay, biochemical, ELISA, streptavidin-HRP readout (AID 1060)
[8] = biological target: T7, Neuropeptide Y receptor type 1 (Homo sapiens, UniProt P25929); assay type: functional;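 further: HEK293 cells with a CNG channel challenged with NPY then isoproterenol; potency as antagonist that reverses NPY suppression of cAMP signal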
T7 sequence (P25929 whole entry): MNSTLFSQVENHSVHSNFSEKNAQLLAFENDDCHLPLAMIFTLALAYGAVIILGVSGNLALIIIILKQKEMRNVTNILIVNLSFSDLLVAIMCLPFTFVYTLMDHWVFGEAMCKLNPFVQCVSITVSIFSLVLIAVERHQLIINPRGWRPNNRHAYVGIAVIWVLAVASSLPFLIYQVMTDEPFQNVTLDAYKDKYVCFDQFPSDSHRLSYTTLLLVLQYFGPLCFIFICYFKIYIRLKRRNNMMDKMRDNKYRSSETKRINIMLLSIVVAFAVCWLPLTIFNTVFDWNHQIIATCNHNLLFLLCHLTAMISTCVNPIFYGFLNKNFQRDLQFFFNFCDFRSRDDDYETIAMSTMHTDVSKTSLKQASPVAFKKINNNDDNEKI

[9] = biological target: T8, Neuropeptide Y receptor type 2 (Homo sapiens, UniProt P49146); assay type: functional, cell-based;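 further: HEK293 cells expressing the receptor and a CNG channel; stimulus was NPY near EC95 followed by isoproterenol to raise cAMP; antagonist potency measured as restoring cAMP signal that NPY suppresses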
T8 sequence (P49146 whole entry): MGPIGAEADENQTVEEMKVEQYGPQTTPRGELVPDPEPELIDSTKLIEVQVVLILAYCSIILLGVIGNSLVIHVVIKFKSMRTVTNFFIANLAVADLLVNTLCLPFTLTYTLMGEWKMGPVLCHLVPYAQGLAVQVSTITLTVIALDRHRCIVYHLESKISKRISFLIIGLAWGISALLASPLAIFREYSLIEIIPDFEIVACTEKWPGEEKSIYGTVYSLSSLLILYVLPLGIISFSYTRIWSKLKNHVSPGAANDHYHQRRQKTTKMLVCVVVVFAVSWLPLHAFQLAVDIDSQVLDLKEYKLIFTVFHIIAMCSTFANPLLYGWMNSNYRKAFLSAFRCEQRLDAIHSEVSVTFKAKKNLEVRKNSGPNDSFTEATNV

T6 sequence (Q92731 whole entry): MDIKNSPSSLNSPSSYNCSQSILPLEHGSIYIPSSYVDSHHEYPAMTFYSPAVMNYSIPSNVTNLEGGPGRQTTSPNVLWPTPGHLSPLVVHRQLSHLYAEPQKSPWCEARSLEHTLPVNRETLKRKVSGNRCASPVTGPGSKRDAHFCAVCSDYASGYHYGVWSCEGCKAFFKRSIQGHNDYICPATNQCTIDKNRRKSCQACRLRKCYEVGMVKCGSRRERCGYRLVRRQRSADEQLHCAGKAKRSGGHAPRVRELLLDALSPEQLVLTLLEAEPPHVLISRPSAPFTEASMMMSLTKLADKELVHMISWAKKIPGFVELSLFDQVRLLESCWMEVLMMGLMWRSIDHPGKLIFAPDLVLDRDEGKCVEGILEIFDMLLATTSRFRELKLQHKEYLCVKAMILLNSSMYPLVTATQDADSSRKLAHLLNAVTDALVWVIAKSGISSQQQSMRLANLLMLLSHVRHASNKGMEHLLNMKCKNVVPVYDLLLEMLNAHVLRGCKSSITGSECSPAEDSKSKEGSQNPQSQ
Epstein-Barr nuclear antigen 1, sequence (P03211 whole entry): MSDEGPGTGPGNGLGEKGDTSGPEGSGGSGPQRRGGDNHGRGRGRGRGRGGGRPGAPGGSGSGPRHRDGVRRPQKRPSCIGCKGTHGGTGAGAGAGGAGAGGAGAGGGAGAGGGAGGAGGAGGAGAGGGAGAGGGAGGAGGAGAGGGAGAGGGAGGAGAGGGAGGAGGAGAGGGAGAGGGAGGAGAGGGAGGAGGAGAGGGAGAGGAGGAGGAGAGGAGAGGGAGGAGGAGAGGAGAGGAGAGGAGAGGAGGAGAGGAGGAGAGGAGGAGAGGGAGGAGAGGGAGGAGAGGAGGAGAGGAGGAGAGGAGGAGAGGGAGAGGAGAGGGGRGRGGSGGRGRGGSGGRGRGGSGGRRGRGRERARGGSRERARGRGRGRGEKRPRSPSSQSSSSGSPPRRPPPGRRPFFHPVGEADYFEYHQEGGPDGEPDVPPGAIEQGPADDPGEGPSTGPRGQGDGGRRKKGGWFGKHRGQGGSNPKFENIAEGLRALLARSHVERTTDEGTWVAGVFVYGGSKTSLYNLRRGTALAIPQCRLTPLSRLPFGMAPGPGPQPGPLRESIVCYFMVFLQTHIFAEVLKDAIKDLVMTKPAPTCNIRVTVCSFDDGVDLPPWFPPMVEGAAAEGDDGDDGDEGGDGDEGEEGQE
Lytic switch protein BZLF1, sequence (P03206 whole entry): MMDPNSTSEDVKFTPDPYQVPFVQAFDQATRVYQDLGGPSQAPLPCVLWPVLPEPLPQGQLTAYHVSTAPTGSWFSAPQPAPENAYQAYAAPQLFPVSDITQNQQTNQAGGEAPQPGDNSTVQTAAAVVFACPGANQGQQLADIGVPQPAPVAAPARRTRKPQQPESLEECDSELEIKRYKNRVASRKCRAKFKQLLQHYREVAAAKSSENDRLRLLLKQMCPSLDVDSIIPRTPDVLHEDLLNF
Procathepsin L, sequence (P07711 whole entry): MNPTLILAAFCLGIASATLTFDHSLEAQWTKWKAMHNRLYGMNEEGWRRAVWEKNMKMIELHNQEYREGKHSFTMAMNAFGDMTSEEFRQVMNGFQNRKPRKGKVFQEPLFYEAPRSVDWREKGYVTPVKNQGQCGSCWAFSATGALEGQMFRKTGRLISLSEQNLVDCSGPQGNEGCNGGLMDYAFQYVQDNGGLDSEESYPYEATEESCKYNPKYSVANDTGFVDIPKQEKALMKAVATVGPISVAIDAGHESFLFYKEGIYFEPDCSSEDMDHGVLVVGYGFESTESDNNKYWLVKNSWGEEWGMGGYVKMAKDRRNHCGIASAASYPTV
Nonstructural protein 1, sequence (Q194T2 whole entry): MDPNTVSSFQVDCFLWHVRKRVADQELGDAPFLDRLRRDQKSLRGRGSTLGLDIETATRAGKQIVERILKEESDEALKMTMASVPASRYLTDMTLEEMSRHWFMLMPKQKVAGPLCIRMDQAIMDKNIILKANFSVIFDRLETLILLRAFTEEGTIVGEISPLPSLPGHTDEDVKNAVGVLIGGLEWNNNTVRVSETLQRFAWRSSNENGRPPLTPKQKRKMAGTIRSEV

Question: For `COc1cc(/C=N/Nc2c(Cl)c(Cl)nc(C(=O)O)c2Cl)cc(OC)c1OC`, which IC50 (NADPH oxidase 1) is on record?
Answer: > 17 µM (not active)

Question: With `O=C(NNC(=O)c1ccc(NC(=O)c2ccccc2)cc1)c1ccc(F)cc1` as the compound, how does the IC50 [1] read?
Answer: > 111 µM (not active)

Question: What about the IC50 [2] of the same compound?
Answer: 6.82 µM (active)

Question: Which IC50 (Leucine aminopeptidase) does the source give for `Cc1ccc(Nc2nnc(SC3CCOC3=O)s2)c(C)c1` (stereo not drawn) here?
Answer: 2.57 µM (active)

Question: What about the IC50 (Procathepsin L) of the same compound?
Answer: > 59.6 µM (not active)

Question: What about the IC50 (Aspartyl aminopeptidase) of the same compound?
Answer: > 73.5 µM (not active)

Question: Which results are given for `O=c1cc(-c2ccc(F)cc2)[nH][nH]1`?
Answer: IC50 (Leucine aminopeptidase): 1.13 µM (active); IC50 (Procathepsin L): > 59.6 µM (not active); EC50 (Protein RecA): 0.548 µM (active); AC50 [3]: 1.79 µM (active); IC50 (Aspartyl aminopeptidase): > 73.5 µM (not active)

Question: For `O=C(CCC(=O)Nc1ccc(F)cc1)Nc1ccc(F)cc1`, which IC50 (NADPH oxidase 1) is on record?
Answer: > 17 µM (not active)

Question: For `O=C(NC(=S)Nc1ccc(S(=O)(=O)N2CCCCCC2)cc1)c1cccs1`, which IC50 [1] is on record?
Answer: > 111 µM (not active)

Question: What about the IC50 [2] of the same compound?
Answer: 14.8 µM (not active)

Question: Which IC50 [4] does the source give for `CN(C)c1ccc(/N=C/c2ccco2)cc1` here?
Answer: 3.55 µM (active)

Question: And the IC50 (Nonstructural protein 1)?
Answer: 16.6 µM (active)

Question: And the IC50 (Estrogen receptor beta [5])?
Answer: 18.5 µM (active)

Question: And the IC50 [6]?
Answer: 3.61 µM (active)

Question: And the IC50 (Estrogen receptor beta [7])?
Answer: 0.048 µM (not active)

Question: Which IC50 [8] does the source give for `COc1ccc(NC(=O)c2nnc(O)c3ccccc23)cc1S(=O)(=O)N1CCCCC1` here?
Answer: 21 µM (not active)

Question: And the IC50 [9]?
Answer: 19.6 µM (not active)

Question: For `COCc1cc(O)n2c(-c3ccc(C)cc3)nnc2n1`, which IC50 (Estrogen receptor beta [5]) is on record?
Answer: 17.5 µM (active)

Question: What about the IC50 (Estrogen receptor beta [7]) of the same compound?
Answer: 1.03 µM (not active)

From ChEMBL document CHEMBL1201862, “PubChem BioAssay data set” (2004)
